Experimental data taken from patent publication US20240360146A1, “BRUTON'S TYROSINE KINASE AND MUTANT DEGRADER, COMPOSITION AND APPLICATION THEREOF” (HANGZHOU HEALZEN THERAPEUTICS CO., LTD., priority 2021, published 2024).

Target: T1, BTK (Homo sapiens, UniProt Q06187)
T1 construct: endogenous in cells; host or cells: Mino cells
Test: BTK degradation activity test in Mino cells
Assay type: cell-based
Details: 16 h incubation, Western blot or Elisa
Summary of the method: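 Mino cells treated with a concentration series of compound for 16 h, then lysed; total protein by BCA. BTK quantified by Western blot or ELISA, degradation rate calculated against blank control, and DC50 fitted from the degradation curve.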

T1 sequence (Q06187 whole entry): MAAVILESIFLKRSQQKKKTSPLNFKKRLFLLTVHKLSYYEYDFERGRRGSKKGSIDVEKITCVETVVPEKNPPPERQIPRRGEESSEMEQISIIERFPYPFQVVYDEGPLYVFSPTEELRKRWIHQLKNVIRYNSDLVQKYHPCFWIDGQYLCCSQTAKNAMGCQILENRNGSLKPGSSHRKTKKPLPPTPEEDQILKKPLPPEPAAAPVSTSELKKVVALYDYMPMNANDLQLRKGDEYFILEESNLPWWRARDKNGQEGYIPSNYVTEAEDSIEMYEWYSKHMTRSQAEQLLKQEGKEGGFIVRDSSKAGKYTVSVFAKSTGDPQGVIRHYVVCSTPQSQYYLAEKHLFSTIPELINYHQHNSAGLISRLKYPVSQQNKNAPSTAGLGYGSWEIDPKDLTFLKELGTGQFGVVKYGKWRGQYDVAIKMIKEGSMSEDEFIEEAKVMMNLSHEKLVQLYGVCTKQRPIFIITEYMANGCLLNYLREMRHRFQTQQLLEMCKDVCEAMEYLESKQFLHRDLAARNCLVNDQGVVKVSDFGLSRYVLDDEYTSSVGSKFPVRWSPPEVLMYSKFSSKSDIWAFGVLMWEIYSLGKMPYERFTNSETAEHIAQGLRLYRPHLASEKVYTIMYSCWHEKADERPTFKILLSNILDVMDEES

SMILES | DC50 [nM]
CN1CCN(C2CC3CC2N(c2nnc(C(N)=O)c(Nc4ccc(C5CCN(C6CCN(c7ccc8c(c7)C(=O)N(C7CCC(=O)NC7=O)C8=O)CC6)CC5)cc4)n2)C3)C1=O (centres unmarked) [Compound 109, 5-((4-(1′-(2-(2,6-dioxopiperidin-3-yl)-1,3-dioxoisoindol-5-yl)-[1,4′-bipiperidin]-4-yl)phenyl)amino)-3-(6-(3-methyl-2-oxoimidazolin-1-yl)-2-azabicyclo[2.2.1]heptan-2-yl)-1,2,4-triazin-6-carboxamide] | < 1
CC1(c2ccc(Nc3nc(N4CCCC(N5CC6CCCN6C5=O)C4)cnc3C(N)=O)cc2)CCN(C2CN(c3ccc4c(c3)C(=O)N(C3CCC(=O)NC3=O)C4=O)C2)CC1 (centres unmarked) [Compound 005, 3-((4-(1-(1-(2-(2,6-dioxopiperidin-3-yl)-1,3-dioxoisoindol-5-yl)azetidin-3-yl)-4-methylpiperidin-4-yl)phenyl)amino)-5-(3-(3-oxotetrahydro-1H-pyrrolo[1,2-c]imidazo 1-2(3H)-yl)piperidin-1-yl)pyrazin-2-carboxamide] | < 1
CN1CCN(C2CC3CC2N(c2nnc(C(N)=O)c(Nc4ccc(C5CCN(CC6CCN(c7ccc8c(c7)n(C)c(=O)n8C7CCC(=O)NC7=O)CC6)CC5)cc4)n2)C3)C1=O (centres unmarked) [Compound 114, 5-((4-(1-((1-(1-(2,6-dioxopiperidin-3-yl)-3-methyl-2-oxo-2,3-dihydro-1H-benzo[d]imidazol-5-yl)piperidin-4-yl)methyl)piperidin-4-yl)phenyl)amino)-3-(6-(3-methyl-2-oxoimidazolin-1-yl)-2-azabicyclo[2.2.1]heptan-2-yl)-1,2,4-triazin-6-carboxamide] | < 1
CN1CCN([C@@H]2CCCN(c3nnc(C(N)=O)c(Nc4ccc(N5CCN(CC6CCN(c7ccc(C(=O)NC8CCC(=O)NC8=O)c8c7OCO8)C6)CC5)c(F)c4)n3)C2)C1=O (stereo partly drawn) [Compound 176, 5-((4-(4-((1-(7-((2,6-dioxopiperidin-3-yl)carbamoyl)benzo[d][1,3]dioxacyclopent-4-yl)pyrrolidin-3-yl)methyl)piperazin-1-yl)-3-fluorophenyl)amino)-3-((R)-3-(3-methyl-2-oxoimidazolidin-1-yl)piperidin-1-yl)-1,2,4-triazin-6-carboxamide] | < 1
NC(=O)c1nnc(N2CCCC(N3CCN(c4cccc(F)c4)C3=O)C2)nc1Nc1ccc(C2CCN(CC3CCN(c4ccc5c(c4)C(=O)N(C4CCC(=O)NC4=O)C5=O)CC3)CC2)cc1 (centres unmarked) [Compound 066, 5-((4-(1-((1-(2-(2,6-dioxopiperidin-3-yl)-1,3-dioxoisoindol-5-yl)piperidin-4-yl)methyl)piperidin-4-yl)phenyl)amino)-3-(3-(3-(3-fluorophenyl)-2-oxoimidazolin-1-yl)piperidin-1-yl)-1,2,4-triazin-6-carboxamide] | < 1
CN1CCN([C@@H]2CCCN(c3nnc(C(N)=O)c(Nc4ccc(N5CCN(CC#Cc6ccc(NC7CCC(=O)NC7=O)c7ocnc67)CC5)c(F)c4)n3)C2)C1=O (stereo partly drawn) [Compound 229, 5-((4-(4-(3-(7-((2,6-dioxopiperidin-3-yl)amino)benzo[d]oxazol-4-yl)propan-2-yn-1-yl)piperazin-1-yl)-3-fluorophenyl)amino)-3-((R)-3-(3-methyl-2-oxoimidazolidin-1-yl)piperidin-1-yl)-1,2,4-triazin-6-carboxamide] | < 1
CN1CCN([C@@H]2CCCN(c3nnc(C(N)=O)c(Nc4ccc(C5CCN(C[C@@H]6CCN(c7cc8c(cc7F)C(=O)N(C7CCC(=O)NC7=O)C8=O)C6)CC5)cc4)n3)C2)C1=O (stereo partly drawn) [Compound 155, 5-((4-(1-(((3S)-1-(2-(2,6-dioxopiperidin-3-yl)-6-fluoro-1,3-dioxoisoindolin-5-yl)pyrrolidin-3-yl)methyl)piperidin-4-yl)phenyl)amino)-3-((R)-3-(3-methyl-2-oxoimidazolin-1-yl)piperidin-1-yl)-1,2,4-triazin-6-carboxamide] | < 1
NC(=O)c1nnc(N2CC3CC(N4CC5CCCN5C4=O)C2C3)nc1Nc1ccc(C2CCN(CC3CCN(c4ccc5c(c4)C(=O)N(C4CCC(=O)NC4=O)C5=O)CC3)CC2)cc1 (centres unmarked) [Compound 074, 5-((4-(1-((1-(2-(2,6-dioxopiperidin-3-yl)-1,3-dioxoisoindol-5-yl)piperidin-4-yl)methyl)piperidin-4-yl)phenyl)amino)-3-(6-(3-oxotetrahydro-1H-pyrrolo[1,2-c]imidazol-2(3H)-yl)-2-azabicyclo[2.2.1]heptan-2-yl)-1,2,4-triazin-6-carboxamide] | < 1
NC(=O)c1ncc(N2CCCC(N3CC4CCCCN4C3=O)C2)nc1Nc1ccc(C2CCN(CC3CCN(c4ccc5c(c4)C(=O)N(C4CCC(=O)NC4=O)C5=O)C3)CC2)cc1 (centres unmarked) [Compound 045, 3-((4-(1-((1-(2-(2,6-dioxopiperidin-3-yl)-1,3-dioxoisoindolin-5-yl)pyrrolidin-3-yl)methyl)piperidin-4-yl)phenyl)amino)-5-(3-(3-oxohexahydroimidazo[1,5-a]pyridin-2(3H)-yl)piperidin-1-yl)pyrazin-2-carboxamide] | < 1
NC(=O)c1nnc(N2CCCC(N3CCN(c4ccccc4)C3=O)C2)nc1Nc1ccc(N2CCN(CC3CCN(c4ccc5c(c4)C(=O)N(C4CCC(=O)NC4=O)C5=O)CC3)CC2)cc1 (centres unmarked) [Compound 095, 5-((4-(4-((1-(2-(2,6-dioxopiperidin-3-yl)-1,3-dioxoisoindol-5-yl)piperidin-4-yl)methyl)piperazin-1-yl)phenyl)amino)-3-(3-(2-oxo-3-phenylimidazolin-1-yl)piperidin-1-yl)-1,2,4-triazin-6-carboxamide] | < 1
CC1(c2ccc(Nc3nc(N4CCCC(N5CCN(c6ccccc6)C5=O)C4)nnc3C(N)=O)cc2)CCN(C2CCN(c3ccc4c(c3)C(=O)N(C3CCC(=O)NC3=O)C4=O)CC2)CC1 (centres unmarked) [Compound 091, 5-((4-(1′-(2-(2,6-dioxopiperidin-3-yl)-1,3-dioxoisoindol-5-yl)-4-methyl-[1,4′-bipiperidin]-4-yl)phenyl)amino)-3-(3-(2-oxo-3-phenylimidazolin-1-yl)piperidin-1-yl)-1,2,4-triazin-6-carboxamide] | > 1
CN1CCN(C2CC3CC2N(c2nnc(C(N)=O)c(Nc4ccc(C5CCN(C6CN(c7cc8c(cc7F)C(=O)N(C7CCC(=O)NC7=O)C8=O)C6)CC5)cc4)n2)C3)C1=O (centres unmarked) [Compound 051, 5-((4-(1-(1-(2-(2,6-dioxopiperidin-3-yl)-6-fluoro-1,3-dioxoisoindolin-5-yl)azetidin-3-yl)piperidin-4-yl)phenyl)amino)-3-(-6-(3-methyl-2-oxoimidazolin-1-yl)-2-azabicyclo[2.2.1]heptan-2-yl)-1,2,4-triazin-6-carboxamide] | < 1
CN1CCN(C2CCCN(c3nnc(C(N)=O)c(Nc4ccc5c(c4)CCN(CC4CCN(c6ccc7c(c6)C(=O)N(C6CCC(=O)NC6=O)C7=O)CC4)C5)n3)C2)C1=O (centres unmarked) [Compound 081, 5-((2-((1-(2-(2,6-dioxopiperidin-3-yl)-1,3-dioxoisoindol-5-yl)piperidin-4-yl)methyl)-1,2,3,4-tetrahydroisoquinolin-6-yl)amino)-3-(3-(3-methyl-2-oxoimidazolin-1-yl)piperidin-1-yl)-1,2,4-triazin-6-carboxamide] | < 1
CN1CCN(C2CCCN(c3nnc(C(N)=O)c(Nc4ccc(C5(C)CCN(CC6CCN(c7ccc8c(c7)C(=O)N(C7CCC(=O)NC7=O)C8=O)C6)CC5)cc4)n3)C2)C1=O (centres unmarked) [Compound 035, 5-((4-(1-((1-(2-(2,6-dioxopiperidin-3-yl)-1,3-dioxoisoindolin-5-yl)pyrrolidin-3-yl)methyl)-4-methylpiperidin-4-yl)phenyl)amino)-3-(3-(3-methyl-2-oxoimidazolin-1-yl)piperidin-1-yl)-1,2,4-triazin-6-carboxamide] | < 1
CN1CCN(C2CC3CC2N(c2nnc(C(N)=O)c(Nc4ccc(C5CCN(CC6CCN(c7ccc8c(c7)C(=O)N(C7CCC(=O)NC7=O)C8=O)CC6)CC5)cc4)n2)C3)C1=O (centres unmarked) [Compound 071, 5-((4-(1-((1-(2-(2,6-dioxopiperidin-3-yl)-1,3-dioxoisoindol-5-yl)piperidin-4-yl)methyl)piperidin-4-yl)phenyl)amino)-3-(6-(3-methyl-2-oxoimidazolin-1-yl)-2-azabicyclo[2.2.1]heptan-2-yl)-1,2,4-triazin-6-carboxamide] | > 1
Cn1c(=O)n(C2CCC(=O)NC2=O)c2ccc(N3CCC(CN4CCC(c5ccc(Nc6nc(N7CCCC(N8CCN(c9ccccc9)C8=O)C7)nnc6C(N)=O)cc5)CC4)CC3)cc21 (centres unmarked) [Compound 101] | < 1
CN1CCN([C@@H]2CCCN(c3nnc(C(N)=O)c(Nc4ccc(N5CCN(CC6CCN(c7ccnc8c(C(=O)NC9CCC(=O)NC9=O)cccc78)CC6)CC5)c(F)c4)n3)C2)C1=O (stereo partly drawn) [Compound 250, 4-(4-((4-(4-((6-carbamoyl-3-((R)-3-(3-methyl-2-oxoimidazolidin-1-yl)piperidin-1-yl)-1,2,4-triazin-5-yl)amino)-2-fluorophenyl)piperazin-1-yl)methyl)piperidin-1-yl)-N-(2,6-dioxopiperidin-3-yl)quinolin-8-carboxamide] | < 1
CC1(c2ccc(Nc3nc(N4CCCC(N5CCN(C6COC6)C5=O)C4)cnc3C(N)=O)cc2)CCN(C2CCN(c3ccc4c(c3)CN(C3CCC(=O)NC3=O)C4=O)CC2)CC1 (centres unmarked) [Compound 013, 3-((4-(1′-(2-(2,6-dioxopiperidin-3-yl)-1-oxoisoindol-5-yl)-4-methyl-[1,4′-bipiperidin]-4-yl)phenyl)amino)-5-(3-(3-(oxetan-3-yl)-2-oxoimidazolin-1-yl)piperidin-1-yl)pyrazin-2-carboxamide] | < 1
CN1CCN(C2CC3CC2N(c2nnc(C(N)=O)c(Nc4ccc(N5CCC(N6CCN(CC#Cc7ccc8c(c7)CN(C7CCC(=O)NC7=O)C8=O)CC6)CC5)cc4)n2)C3)C1=O (centres unmarked) [Compound 110] | < 1
CC1(c2ccc(Nc3nc(N4CCCC(N5CCN(C6CCCC6)C5=O)C4)cnc3C(N)=O)cc2)CCN(C2CN(c3ccc4c(c3)C(=O)N(C3CCC(=O)NC3=O)C4=O)C2)CC1 (centres unmarked) [Compound 001, 5-(3-(3-cyclopentyl-2-oxoimidazolin-1-yl)piperidin-1-yl)-3-((4-(1-(1-(2-(2,6-dioxopiperidin-3-yl)-1,3-dioxoisoindol-5-yl)azetidin-3-yl)-4-methylpiperidin-4-yl)phenyl)amino)pyrazin-2-carboxamide] | < 1
